According to the supplement of paper PMC10307832:

Assays:
Assay in all cases: relative viability (nuclei count vs DMSO), 5 days (fraction); higher = more cells survive
Vorinostat + Decitabine = compound: O=C(CCCCCCC(=O)Nc1ccccc1)NO [Vorinostat] + Nc1ncn([C@H]2C[C@H](O)[C@@H](CO)O2)c(=O)n1 [Decitabine] (partner 2 µM)
Procedure, shortened: (§1)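 Relative viability divides the nuclei count in treated wells by that in vehicle wells. Lung cancer cell lines were seeded in 1536-well plates, dosed by pin tool the next day, and fixed and stained after 5 days in one step with final 0.05% Triton X-100, 1% formaldehyde and 1 ug/ml Hoechst. Dosing was a single drug or a fixed anchor-drug dose plus five library-drug doses (not always all listed) in √10 steps, and values are medians of duplicate plates imaged at 4×.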

Vorinostat + Pictilisib = compound: O=C(CCCCCCC(=O)Nc1ccccc1)NO [Vorinostat] + CS(=O)(=O)N1CCN(Cc2cc3nc(-c4cccc5[nH]ncc45)nc(N4CCOCC4)c3s2)CC1 [Pictilisib] (partner 1 µM)
Procedure, shortened: as §1

Vorinostat + Palbociclib = compound: O=C(CCCCCCC(=O)Nc1ccccc1)NO [Vorinostat] + CC(=O)c1c(C)c2cnc(Nc3ccc(N4CCNCC4)cn3)nc2n(C2CCCC2)c1=O [Palbociclib] (partner 0.5 µM)
Procedure, shortened: as §1

Vorinostat + Bortezomib = compound: O=C(CCCCCCC(=O)Nc1ccccc1)NO [Vorinostat] + CC(C)C[C@H](NC(=O)[C@H](Cc1ccccc1)NC(=O)c1cnccn1)B(O)O [Bortezomib] (partner 0.002 µM)
Procedure, shortened: as §1

Vorinostat + Pemetrexed = compound: O=C(CCCCCCC(=O)Nc1ccccc1)NO [Vorinostat] + Nc1nc2[nH]cc(CCc3ccc(C(=O)N[C@@H](CCC(=O)O)C(=O)O)cc3)c2c(=O)[nH]1 [Pemetrexed] (partner 0.2 µM)
Procedure, shortened: as §1

Cell Line | relative viability (Vorinostat + Decitabine; first compound 0.253 µM) | relative viability (Vorinostat + Decitabine; first compound 0.8 µM) | relative viability (Vorinostat + Decitabine; first compound 2.53 µM) | relative viability (Vorinostat + Decitabine; first compound 8 µM) | relative viability (Vorinostat + Pictilisib; first compound 0.253 µM) | relative viability (Vorinostat + Pictilisib; first compound 0.8 µM) | relative viability (Vorinostat + Pictilisib; first compound 2.53 µM) | relative viability (Vorinostat + Pictilisib; first compound 8 µM) | relative viability (Vorinostat + Palbociclib; first compound 0.253 µM) | relative viability (Vorinostat + Palbociclib; first compound 0.8 µM) | relative viability (Vorinostat + Palbociclib; first compound 2.53 µM) | relative viability (Vorinostat + Palbociclib; first compound 8 µM) | relative viability (Vorinostat + Bortezomib; first compound 0.253 µM) | relative viability (Vorinostat + Bortezomib; first compound 0.8 µM) | relative viability (Vorinostat + Bortezomib; first compound 2.53 µM) | relative viability (Vorinostat + Bortezomib; first compound 8 µM) | relative viability (Vorinostat + Pemetrexed; first compound 0.253 µM) | relative viability (Vorinostat + Pemetrexed; first compound 0.8 µM) | relative viability (Vorinostat + Pemetrexed; first compound 2.53 µM) | relative viability (Vorinostat + Pemetrexed; first compound 8 µM)
PC-3 [JPC-3] | 0.807 | 0.71 | 0.429 | 0.381 | 0.779 | 0.582 | 0.423 | 0.309 | 0.521 | 0.506 | 0.45 | 0.378 | 0.846 | 0.85 | 0.398 | 0.216 | 1.1 | 0.866 | 0.285 | 0.281
NCI-H441 | 0.223 | 0.199 | 0.168 | 0.104 | 0.517 | 0.448 | 0.164 | 0.11 | 0.241 | 0.249 | 0.157 | 0.101 | 0.299 | 0.26 | 0.165 | 0.106 | 0.252 | 0.232 | 0.253 | 0.143
NCI-H2342 | 0.58 | 0.715 | 0.529 | 0.391 | – | – | – | – | 0.529 | 0.502 | 0.58 | 0.488 | – | – | – | – | 0.834 | 0.832 | 0.68 | 0.306
NCI-H358 | 0.202 | 0.196 | 0.105 | 0.091 | 0.372 | 0.468 | 0.17 | 0.172 | 0.139 | 0.167 | 0.101 | 0.0793 | – | – | – | – | 0.155 | 0.155 | 0.152 | 0.0859
NCI-H1793 | 0.596 | 0.504 | 0.38 | 0.165 | 0.479 | 0.355 | 0.286 | 0.174 | 0.283 | 0.279 | 0.213 | 0.159 | – | – | – | – | 1.26 | 0.869 | 0.654 | 0.175
SK-LU-1 | 0.655 | 0.669 | 0.494 | 0.196 | 0.595 | 0.55 | 0.351 | 0.133 | 0.438 | 0.363 | 0.32 | 0.177 | 0.678 | 1.22 | 0.248 | 0.163 | 0.936 | 0.807 | 0.64 | 0.179
ChaGo-K-1 | 0.508 | 0.516 | 0.389 | 0.202 | 0.832 | 0.597 | 0.345 | 0.246 | 0.943 | 0.874 | 0.529 | 0.182 | 0.954 | 0.932 | 0.467 | 0.282 | 0.254 | 0.26 | 0.254 | 0.218
NCI-H1563 | – | – | – | – | 0.682 | 0.637 | 0.68 | 0.592 | – | – | – | – | 0.977 | 0.778 | 0.579 | 0.503 | 0.877 | 0.651 | 0.708 | 0.384
NCI-H596 | 1.07 | 0.902 | 0.68 | 0.36 | 0.355 | 0.357 | 0.316 | 0.277 | – | – | – | – | 0.942 | 0.693 | 0.663 | 0.258 | 0.503 | 0.465 | 0.412 | 0.346
NCI-H2023 | 0.242 | 0.177 | 0.11 | 0.0687 | 0.221 | 0.214 | 0.128 | 0.0818 | 0.467 | 0.375 | 0.199 | 0.0512 | 1.16 | 0.657 | 0.223 | 0.07 | 0.233 | 0.182 | 0.103 | 0.067
NCI-H1437 | 0.55 | 0.454 | 0.285 | 0.235 | 0.466 | 0.167 | 0.107 | 0.088 | 0.303 | 0.265 | 0.172 | 0.124 | 0.578 | 0.417 | 0.117 | 0.0915 | 0.308 | 0.3 | 0.187 | 0.151
EKVX | 0.31 | 0.324 | 0.194 | 0.133 | 0.475 | 0.441 | 0.21 | 0.103 | 0.401 | 0.398 | 0.199 | 0.125 | 1.14 | 1.11 | 0.561 | 0.175 | 0.384 | 0.413 | 0.386 | 0.146
HCC-44 | 1.03 | 0.896 | 0.737 | 0.413 | 0.603 | 0.411 | 0.308 | 0.0904 | 0.989 | 0.969 | 0.812 | 0.301 | 0.886 | 0.883 | 0.514 | 0.109 | 0.663 | 0.683 | 0.628 | 0.485
NCI-H2405 | 0.794 | 0.741 | 0.478 | 0.121 | 0.478 | 0.542 | 0.153 | 0.0468 | 0.604 | 0.627 | 0.286 | 0.13 | 1.06 | 1.01 | 0.952 | 0.206 | 1.18 | 1.1 | 0.357 | 0.122
NCI-H1944 | 0.397 | 0.364 | 0.259 | 0.141 | 0.338 | 0.308 | 0.27 | 0.18 | 0.31 | 0.272 | 0.176 | 0.118 | – | – | – | – | 0.585 | 0.448 | 0.311 | 0.135
NCI-H1734 | 0.548 | 0.444 | 0.31 | 0.0873 | 0.512 | 0.49 | 0.299 | 0.13 | 0.402 | 0.34 | 0.253 | 0.133 | 1.14 | 0.96 | 0.417 | 0.109 | 0.44 | 0.413 | 0.408 | 0.131
NCI-H322M | 0.679 | 1.1 | 0.622 | 0.373 | 0.537 | 0.541 | 0.386 | 0.317 | 0.487 | 0.445 | 0.418 | 0.356 | 1.4 | 1.25 | 0.715 | 0.392 | 0.764 | 0.603 | 0.569 | 0.355
